{"source": "patent US8747837B2", "about": "“Oncolytic vaccinia virus combination cancer therapy” (priority 2009, dated 2014)", "key": {"B16-F10-LacZ cells": {"system": "B16-F10-LacZ cells", "test": "B16 melanoma lung nodule model", "format": "in vivo, C57BL/6 mice", "settings": "combination therapy, FIG. 4 legend", "experimental": "Sorafenib Enhances JX-594 Activity Against Murine B16 Melanoma Lung Nodules in Vivo: The combination of JX-594 and sorafenib was tested in an immunocompentent murine model of B16 melanoma tumors. C57BL/6 mice were injected with 3×10^5 B16-F10-LacZ cells IV and treated with Sorafenib alone (HD: 10 mg/kg, LD: 50 μg/kg p.o. daily for 2 weeks), JX594 alone (10^7 pfu IV 3 times per week for 1 week), or in combination (LD or HD sorafenib prior to JX-594 IV) (n=5 per group)(FIG. 4, top panel). At the end of treatment, mice were sacrificed and lungs were fixed and stained to detect B16 surface nodules (n=5 per group). The mean number of tumor nodules at the end of study is shown for each group (FIG. 4)."}, "[1]": {"system": "JX-594 replication in A2780 (ovarian) cells", "format": "cell-based, vaccinia virus"}, "[2]": {"system": "CT26 colorectal tumor cells", "test": "CT26 subcutaneous colorectal tumor model", "format": "in vivo, Balb/c mice", "settings": "combination therapy, FIG. 3 legend", "experimental": "FIG. 3. […] Kaplan-Meier survival curves are shown for each condition in the middle panel. Effects on tumor volume are shown in the lower panel.\nSorafenib enhances JX-594 activity against murine CT26 primary tumors in vivo: The combination of JX-594 and sorafenib was tested in an immunocompentent murine model of subcutaneously implanted CT26 colorectal tumor cells. Balb/c mice were injected with 3×10^5 CT26 cells subcutaneously and after 11 days, treatment commenced with Sorafenib alone (10 mg/kg p.o. daily for 2 weeks), JX594 alone (10^8 pfu IV 3 times per week for 1 week), or in combination (JX594 prior to Sorafenib, or Sorafenib prior to JX594) (n=4 per group) (FIG. 3, upper panel). Control animals received PBS only. For this experiment, a version of JX-594 was used that expresses murine GM-CSF. Tumors were measured twice weekly until endpoint. Surviving proportions of each study group at each timepoint post treatment are shown (FIG. 3, middle panel). The mean tumor volumes of each study group at each timepoint post-treatment are shown (FIG. 3, lower panel)."}, "hepatocellular carcinoma [3]": {"system": "hepatocellular carcinoma", "test": "Sorafenib-only local control group assessed by Choi criteria", "format": "in vivo, human", "settings": "no JX-594, 26 total, 15 assessed, both responders also had radiation therapy", "experimental": "Example Sorafenib Only “Control Group” (Figure Included): Historically, the RECIST response rate to sorafenib alone is 1-2% (Llovet et al., 2008; Cheng et al., 2009). For a local control group assessed by Choi criteria, HCC patients that had not received JX-594, but had received sorafenib, were assessed for Choi response. In the hospital where 4 of the 5 JX-594 patients were treated, 26 other patients had received sorafenib in the same period. 7 patients died prior to response assessment, and 15 patients were assessed for Choi response. […] It should be noted that both of these patients had received radiation therapy in conjunction with sorafenib therapy."}, "murine HCC model": {"system": "murine HCC model", "format": "in vivo"}, "[4]": {"system": "JX-594 replication in PLC/PRF/5 human HCC cell line", "test": "JX-594 burst size / replication with sorafenib in PLC/PRF/5 cells", "format": "cell-based, vaccinia virus"}, "[5]": {"system": "JX-594 replication in HepG2 (HCC) cells", "format": "cell-based, vaccinia virus"}, "hepatocellular carcinoma [6]": {"system": "hepatocellular carcinoma", "test": "Sorafenib therapy following JX-594 in HCC patients (DCE-MRI, Choi)", "format": "in vivo, human", "experimental": "Sorafenib Therapy and Tumor Response Assessment Following JX-594: Patients completed the IT clinical trial of JX-594 after 8 weeks on study. Some patients (Patients 1702, 1705, 1002, 1712, 1713) went on to receive standard sorafenib treatment (400 mg twice daily p.o.). Tumors in these patients were followed by DCE-MRI imaging using the same procedures that were used to assess response to JX-594 treatment.\nTumor Vascularity and Response Assessment: DCE MRI (dynamic contrast-enhanced magnetic resonance imaging) was performed at screening (baseline), on Day 5 (optional) and Week 8. For patients going on to Sorafenib, DCE MRI was performed 4 and/or 8 weeks after the start of Sorafenib treatment. DCE MRI assesses tumor size, vascularity and necrosis. The screening/baseline DCE MRI was used as the reference from which to determine time to progression and response rates. […] Tumor progression status and tumor response(s) to JX-594 were assessed radiologically by modified RECIST and modified Choi criteria at the Week 8 visit. Independent review of the images was made by radiologist(s) with expertise in evaluating hepatocellular carcinoma on MRI scans. For evaluation of the intra-hepatic tumors, the proportion of subjects with an objective “complete” or “partial” anti-tumor response was determined based on modified RECIST, and a response as measured by Modified Choi criteria (defined as a ≧10% decrease in the sum of the longest diameter and/or ≧15% decrease in the average tumor signal intensity at MRI).\nTumor Response by Modified Choi Criteria: The Choi response criteria takes into consideration changes in tumor density in addition to tumor diameter (versus RECIST) and data supporting its utility has been published (Choi et al. 2004). Early studies have shown that liver tumors treated with JX-594 can develop significant internal necrosis without a concomitant decrease in size, as has been described in gastrointestinal stromal tumors by Choi et al. (2004). Therefore, intra-hepatic tumors were also measured and response evaluated using a Modified Choi Criteria. The modification of the criteria is necessary as DCE MRI was the imaging modality employed for measuring tumor response. […] The screening/baseline DCE MRI was used as the reference from which to determine response. A response by Modified Choi criteria was defined as a ≧10% decrease in the sum of the longest diameter of the injected tumor(s) and/or ≧15% decrease in the average injected tumor signal intensity on MRI. The average MRI signal intensity (SI) was measured as a percentage of tumor."}, "[7]": {"system": "HepG2 (human HCC line) tumors", "test": "HepG2 vascularity study, CD31 vessel counts", "format": "in vivo, nude mice", "excerpt": "FIG. 6 Anti-vascular effects of JX-594 followed by sorafenib. Top panels show study design of a preclinical study of JX-594 followed by Sorafenib in HepG2 xenograft model. […] Error bars are standard error.\nExperimental Methods, Vascularity Study: The study followed longer term effects on vascularity and assessed the efficacy of JX-594+/−Sorafenib in the HepG2 model. HepG2 (human HCC line) tumors were implanted subcutaneously in nude mice. Animals were randomized to seven treatment groups (n=5 per group) to test agents alone, and in combination. Groups were treated with JX-594 (10^6 pfu intratumorally, D1 and D8) and/or Sorafenib (400 μg i.p., daily D15-D29) or PBS (control) on the schedule detailed in (FIG. 6). Tumors were measured using calipers twice weekly. Serum samples were collected on D1, D8, D15, D22 and D29 for measurement of VEGF and GM-CSF levels. Mice were euthanized on D22 or D35. Prior to euthanization, mice were injected with fluorescent microspheres to allow for visualization of tumor perfusion. […]\nResults: Vessels were counted in CD31-stained OCT tumor sections; the average number of vessels in 3 fields of 200× magnification are presented in (FIG. 6)."}, "[8]": {"system": "JX-594 replication in SNU423, SNU398, SNU475, SNU449, SNU387 and U2OS", "format": "cell-based, vaccinia virus"}, "hepatocellular carcinoma [9]": {"system": "hepatocellular carcinoma", "test": "Phase 2 trial, IV JX-594 then IT JX-594 then sorafenib in HCC", "format": "in vivo, human", "settings": "Patient JX16-HCC-03, 10 days after sorafenib initiation, after one IV and two IT doses of JX-594", "experimental": "JX-594 Treatment Procedure, Patients Treated by IV JX-594 Followed by IT JX-594 Followed by Sorafenib: Patients with unresectable HCC received […] of JX-594 levels (10^9 pfu). For the first dose (Day 1), JX-594 was administred by intravenous infusion over 60 minutes. For the second and third doses (Day 8 and Day 22), JX-594 was administered via imaging-guided intratumoral injection using a multi-pronged Quadrafuse injection needle in roughly spherical tumors, or by a 21-gauge PEIT (percutaneous ethanol injection, multi-pore; HAKKO Medicals; Tokyo, Japan) needle in irregularly-shaped tumors. Starting on Day 25, patients imitated oral sorafenib therapy (400 mg twice daily p.o.). Patients with viable tumor tissue received a Week 12 IT injection of JX-594 (sorafenib treatment was temporarily discontinued 2-3 days before, during and 4-5 days after this booster injection). Imaging (CT, DECE MIR and/or PET-CT) was performed at baseline, Day 25, Week 6 and/or Week 12 to assess response.\nExample JX16-HCC-03, IV+IT+IT+Sorafenib Patient: Patient JX16-HCC-03 had hepatocellular carcinoma and was enrolled in a Phase 2 Clinical Trial of JX-594. After completing JX-594 administration (one intravenous and two intratumoral doses) patient received sorafenib."}, "hepatocellular carcinoma [10]": {"system": "hepatocellular carcinoma", "settings": "cited from earlier work; for mean tumor necrosis (MRI): sorafenib-only trial"}}, "note": "Entries after “also recorded” stand apart in the source; their conditions may differ. Where two headings read alike, the source gives them in different places."}
{"smiles": "CNC(=O)c1cc(Oc2ccc(NC(=O)Nc3ccc(Cl)c(C(F)(F)F)c3)cc2)ccn1", "note": "[Sorafenib]", "values": [{"measurement": "JX-594 efficacy in murine B16 metastatic melanoma model", "setting": "B16-F10-LacZ cells", "value": "enhances JX-594 efficacy"}, {"measurement": "JX-594 plaque formation and replication (burst)", "setting": "[1]", "value": "can inhibit viral growth and replication; also recorded: Inhibits JX-594 Plaque Formation and Replication"}, {"measurement": "JX-594 efficacy against CT26 subcutaneous solid tumors", "setting": "[2]", "value": "enhances JX-594 efficacy"}, {"measurement": "patients with a Choi+ response", "setting": "hepatocellular carcinoma [3]", "value": 2, "unit": "patients"}, {"measurement": "angiogenesis", "setting": "murine HCC model; adjuvant sorafenib after JX-594", "value": "inhibited angiogenesis"}, {"measurement": "anti-tumoral efficacy", "setting": "murine HCC model; adjuvant sorafenib after JX-594, versus either agent alone", "value": "significantly improved anti-tumoral efficacy over either agent alone"}, {"measurement": "JX-594 replication", "setting": "[4]; 10 μM sorafenib, various MOI, 24 hours infection, plaque assay on Vero cells", "value": "inhibited"}, {"measurement": "burst size decreased", "setting": "[4]; Sorafenib 10 μM added 2 hrs prior to, during or 2 hrs after JX-594 infection, PLC/PRF/5", "value": "up to 100 fold"}, {"measurement": "JX-594 plaque formation and replication (burst)", "setting": "[5]", "value": "can inhibit viral growth and replication; also recorded: Inhibits JX-594 Plaque Formation and Replication"}, {"measurement": "DCE MRI finding after initiation of Sorafenib", "setting": "hepatocellular carcinoma [6]; Patient 1702, after three IT doses JX-594, 4 and 8 weeks of Sorafenib (200 mg twice daily p.o.)", "value": "acute tumor necrosis"}, {"measurement": "DCE MRI finding after initiation of Sorafenib", "setting": "hepatocellular carcinoma [6]; Patient 1705, after JX-594, 4 weeks of Sorafenib 400 mg twice daily p.o.", "value": "acute tumor necrosis"}, {"measurement": "DCE-MRI finding after initiation of Sorafenib", "setting": "hepatocellular carcinoma [6]; Patient 1712, after JX-594, 4 weeks of Sorafenib 400 mg twice daily p.o.", "value": "acute tumor necrosis"}, {"measurement": "tumor necrosis and vascular shutdown with adjuvant sorafenib", "setting": "hepatocellular carcinoma [6]; sorafenib after the Week 8 assessment, patients pre-treated with JX-594", "value": "dramatic and durable tumor necrosis and vascular shutdown in two patients; also recorded: dramatic and durable tumor necrosis and vascular shutdown in at least three patients"}, {"measurement": "number of vessels in CD31-stained tumor sections", "setting": "[7]; Sorafenib alone 400 μg i.p. daily D15-D29, Day 29", "value": "transient decrease in the number of vessels"}, {"measurement": "number of vessels in CD31-stained tumor sections", "setting": "[7]; Sorafenib alone, Day 35", "value": "vessel counts increase again"}, {"measurement": "JX-594 replication", "setting": "[8]", "value": "inhibited JX-594 replication"}, {"measurement": "DCE-MRI perfusion of non-injected extrahepatic tumor", "setting": "hepatocellular carcinoma [9]", "value": "loss of perfusion"}, {"measurement": "RECIST response rate", "setting": "hepatocellular carcinoma [10]; sorafenib alone, historical (Llovet et al., 2008; Cheng et al., 2009)", "value": "1-2%"}, {"measurement": "mean tumor necrosis (MRI)", "setting": "hepatocellular carcinoma [10]; after several courses of treatment (Abou-Alfa et al., 2006)", "value": 27, "unit": "%"}, {"measurement": "mean tumor necrosis (MRI)", "setting": "hepatocellular carcinoma [10]; at baseline (Abou-Alfa et al., 2006)", "value": 9.8, "unit": "%"}]}
